This is an account of results in patent US7038049B2, “Haloanilino quinazolines and therapeutic use thereof” (Parker Hughes Institute, priority 1999, dated 2006).

Data set [1] concerns mice. The experiment in a line: Single bolus dose toxicity in mice. It is filed as in vivo. The method, then: (§1) HI-P131 was not toxic to mice at intraperitoneal single bolus doses ranging from 0.5 mg/kg to 250 mg/kg. […] Thus, the maximum tolerated dose (MlD) of HI-P131 was not reached at 250 mg/kg. We next examined the pharmacokinetic features of HI-P131 in mice. A two-compartment pharmacokinetic model was fit to the pharmacokinetics data obtained following the intravenous (i.v.) or intraperitoneal (i.p.) administration of a single non-toxic 12.5 mg/kg bolus dose of HI-P131.

A short description of data set [2]: Single bolus dose toxicity in mice. It is filed as in vivo. Particulars: mouse, in vivo, ip. The method, then:
as §1

Data set [3] has as its system U373 human brain tumor cells. The experiment in a line: MTT cytotoxicity assay, U373. It is filed as cell-based. Particulars: Homo sapiens, U373 MG. As to the method:
(§2) The cytotoxicity assay of various compounds against human tumor cell lines was performed using the MTT (3-[4,5-dimethylthiazol-2-yl]-2,5-diphenyl tetrazolium bromide) assay (Boehringer Mannheim Corp., Indianapolis, Ind.). Briefly, exponentially growing tumor cells were seeded into a 96-well plate at a density of 2.5×10^4 cells/well and incubated for 36 hours at 37° C. prior to drug exposure. On the day of treatment, culture medium was carefully aspirated from the wells and replaced with fresh medium containing the quinazoline compounds at concentrations ranging from 0.1 to 250 μM. Triplicate wells were used for each treatment.
(§3) Human cell lines were obtained from American Type Culture Collection (Rockville, Md.) and maintained as a continuous cell line in Dulbecco's modified Eagles' medium supplemented with 10% fetal bovine serum and antibiotics. Cells used in this study include human leukemia cells (NALM-6 and MOLT-3), human breast cancer cells ([…]), human prostate cancer cells (PC3), and human brain tumor cells (U373).
(§4) The cells were incubated with the various compounds for 24–36 hours at 37° C. in a humidified 5% CO2 atmosphere. To each well, 10 μl of MTT (0.5 mg/ml final concentration) was added and the plates were incubated at 37° C. for 4 hours to allow MTT to form formazan crystals by reacting with metabolically active cells. The formazan crystals were solubilized overnight at 37° C. in a solution containing 10% SDS in 0.01 M HCl. The absorbance of each well was measured in a microplate reader (Labsystems) at 540 nm and a reference wavelength of 690 nm. To translate the OD 540 values into the number of live cells in each well, the OD 540 values were compared to those on standard OD 540—versus—cell number curves generated for each cell line. The percent survival was calculated using the formula:
(§5) [formula] The IC50 values were calculated by non-linear regression analysis. Detection of Apoptosis
For orientation: Formazan colour is commonly taken as a measure of viable cells.

The subject of data set [4] is NALM-6 human leukemia cells. The data set is described as follows: MTT cytotoxicity assay, NALM-6. It is filed as cell-based. As to conditions: Homo sapiens. The method, then: as §2, §3, §4, §5
Data set [5] concerns BT20 human breast cancer cells. The data set is described as follows: MTT cytotoxicity assay, BT20. In kind it is cell-based. As to conditions: Homo sapiens. As to the method:
as §2, §3, §4, §5

Data set [6] is described as follows: Pharmacokinetic study in mice. In kind it is in vivo. As to conditions: mouse, plasma, iv, single 12.5 mg/kg bolus, two-compartment model, read-out: Estimated maximum plasma concentration (Cmax). As to the method: In pharmacokinetic studies, mice were injected either intravenously (i.v.) via the tail vein or intraperitoneally (i.p.) with a bolus dose of 300 μg/mouse (˜12.5 mg/kg=34 μmols/kg) of HI-P131. Blood samples were obtained from the ocular venous plexus by retroorbital venupuncture prior to and at 3 minutes, 5 minutes, 10 minutes, 15 minutes, 30 minutes, 45 minutes and 1 hour, 2 hours, 4 hours, and 8 hours after administration of HI-P 131. All collected blood samples were heparinized and centrifuged at 7,000 xg for 10 minutes in a microcentrifuge to obtain plasma. The plasma samples were stored at −20° C. until analysis. Aliquots of plasma were used for extraction and HPLC analysis. […] The area under the concentration time curve (AUC) was calculated by the trapezoidal rule between first (0 h) and last sampling time plus C/k, where C is the concentration of last sampling and k is the elimination rate constant. Systemic clearance (CL) was determined by dividing the dose by the AUC. The apparent volume of distribution at steady-state was calculated using the following equation, Vss=Dose·AUMC/(AUC)^2. […]
A highly sensitive quantitative HPLC detection method (Chen et al., 1998, J. Chromatography B (Biomedical sciences), in press) was used to determine the pharmocokinetics of HI-P131. […]

The test system of data set [7] is MOLT-3 human leukemia cells. The data set is described as follows: MTT cytotoxicity assay, MOLT-3. It is filed as cell-based. As to conditions: Homo sapiens. The method, then:
as §2, §3, §4, §5

Data set [8] deals with PC3 cells. The data set is described as follows: TUNEL apoptosis assay, PC3. It is filed as cell-based, human. As to conditions: 24 hours incubation, FIG. 3. The method, then: Exponentially growing cells were seeded in 6-well tissue culture plates at a density of 50×10^4 cells/well and cultured for 36 hours at 37° C. in a humidified 5% CO2 atmosphere. The supernatant culture medium was carefully aspirated and replaced with fresh medium containing unconjugated EGF or EGF-P154 at a concentration of 10, 25, or 50 μg/ml. After a 36 hour incubation at 37° C. in a humidified 5% CO2 incubator, the supernatants were carefully aspirated and the cells were treated for 1–2 minutes with 0.1% trypsin. The detached cells were collected into a 15 ml centrifuge tube, washed with medium and pelleted by centrifugation at 1000 rpm for 5 minutes. Cells were resuspended in 50 μl of PBS, transferred to poly-L-lysine coated coverslips and allowed to attach for 15 minutes. The cells were washed once with PBS and incubated with equilibration buffer for 10 minutes at room temperature. […]
The cells were incubated with HI-P353 or HI-P219 for 24 hours, fixed, permeabilized, and visualized for DNA degradation in a TUNEL assay using digoxigenin-UTP-labeling kit. In the color photographs, red fluorescence represents nuclei stained with propidium iodide. […]

For data set [9], the system named is PC3 human prostate cancer cells. The data set is described as follows: MTT cytotoxicity assay, PC3. In kind it is cell-based. Particulars: Table 5, fluoro-substituted, value ± spread. The method, then: as §2, §3, §4, §5

A value given as a limit tells only on which side of the number the result lay.

As usually defined, the IC50 is the concentration that inhibits the measured activity by half. A lower IC50 goes with greater potency. Take `COc1cc2ncnc(Nc3ccc(O)cc3)c2cc1OC` [HI-P131, 4-(4′-Hydroxylphenyl)-amino-6,7-dimethoxyquinazoline]: the “Side effects or death of toxicity” value in data set [1] (50 mice, 30 day observation period) is on record as “None of the 50 mice treated with HI-P131 experienced side effects or died of toxicity”. Further, in data set [1] (mouse, in vivo), the “Histopathologic lesions in organs” value is recorded as “No histopathologic lesions”. Moreover, in [1] (mouse, in vivo), the Toxicity to mice entry is “not toxic”. Besides, in [2], the MTD at 30 day is > 250 mg/kg. For the same compound, the IC50 was > 250 µM in data set [3] (Table 4, OH substituted, 24–36 hours); 32.1 µM in [4] (NALM-6, Table 4, OH substituted, 24–36 hours); > 250 µM in [5] (BT-20, Table 4, OH substituted, 24–36 hours); 38.6 µM in data set [7] (MOLT-3, Table 4, OH substituted, 24–36 hours). Moreover, in [6], the Cmax is 85.6 µM.
As for `COc1cc2ncnc(Nc3ccc(OC(F)(F)F)cc3)c2cc1OC` [HI-P219, 4-(4′-Trifluoromethoxylphenyl)-amino-6,7-dimethoxyqui-nazoline], the IC50 in data set [3] (Table 5, fluoro-substituted, value ± spread) amounted to 83.6 ± 6.5 µM; in data set [4] (NALM-6, Table 5, fluoro-substituted, value ± spread), 22.3 ± 3 µM; in data set [9], 58.3 ± 3.2 µM; in data set [5] (BT-20, Table 5, fluoro-substituted, value ± spread) it was 44.2 ± 10.9 µM; in data set [7] (MOLT-3, Table 5, fluoro-substituted, value ± spread), 41.3 ± 4.4 µM. Besides, the “Induction of apoptosis (TUNEL)” value in data set [8] is given as “Apoptosis was induced”.
